Measurements taken from patent US20220152100A1, “METHODS FOR CONTROLLED ACTIVATION OR ELIMINATION OF THERAPEUTIC CELLS” (Bellicum Pharmaceuticals, Inc., priority 2014, published 2022).

Key:
iCasp9-positive MSCs = experiment: In vivo killing of iCasp9-transduced MSCs in SCID mice (luminescence, qPCR)
Experimental: All mouse experiments were performed in accordance with the Baylor College of Medicine animal husbandry guidelines. To assess the persistence of modified MSCs in vivo, a SCID mouse model was used in conjunction with an in vivo imaging system. MSCs were transduced with retroviruses coding for the enhanced green fluorescent protein-firefly luciferase (eGFP-FFLuc) gene alone or together with the iCasp9-ΔCD19 gene. Cells were sorted for eGFP positivity by fluorescence activated cell sorting using a MoFlo flow cytometer (Beckman Coulter, Fullerton, Calif.). Doubly transduced cells were also stained with PE-conjugated anti-CD19 and sorted for PE-positivity. SCID mice (8-10 weeks old) were injected subcutaneously with 5×10^5 MSCs with and without iCasp9-ΔCD19 in opposite flanks. […] For in vivo imaging of MSCs expressing eGFP-FFLuc, mice were injected intraperitoneally with D-luciferin (150 mg/kg) and analyzed using the Xenogen-IVIS Imaging System. Total luminescence (a measurement proportional to the total labeled MSCs deposited) at each time point was calculated by automatically defining regions-of-interest (ROIs) over the MSC implantation sites. These ROIs included all areas with luminescence signals at least 5% above background. Total photon counts were integrated for each ROI and an average value calculated. […]

[1] = system: EBV-specific CTL lines (EBV-CTL); experiment: CID-induced elimination/apoptosis of transduced EBV-CTLs (GFP, annexin V/7-AAD flow cytometry); assay type: cell-based, human; settings: for elimination of GFP+ cells: GFPhigh
[2] = T cells selected for high expression, overnight 10 nM

CC[C@H](C(=O)N1CCCC[C@H]1C(=O)O[C@H](CCc1ccc(OC)c(OC)c1)c1cccc(OCC(=O)NCC(CNC(=O)COc2cccc([C@@H](CCc3ccc(OC)c(OC)c3)OC(=O)[C@@H]3CCCCN3C(=O)[C@@H](CC)c3cc(OC)c(OC)c(OC)c3)c2)CN(C)C)c1)c1cc(OC)c(OC)c(OC)c1 [AP20187]
surviving iCasp9-positive cells, of the original population (iCasp9-positive MSCs; after one week): 0.7%
killing of iCasp9-positive cells (iCasp9-positive MSCs; two injections of 50 μg 24 hours apart, qPCR): > 99%
concentration sufficient to obtain the maximal deletion effect ([1]; F-Casp9M.I.GFPhigh, survival of GFP+ cells on day 7): 1 nM
time to apoptotic characteristics (cell shrinkage and fragmentation) ([1]; GFPhigh-selected cells, 10 nM): ≤ 14 h
deletion of transduced cells ([1]; GFPhigh-selected iCasp9M cells, 10 nM, day 7): 99.1%
apoptotic (annexin-V+/7-AAD−) phenotype [1, 2]: 64%
necrotic (annexinV+/7-AAD+) phenotype [1, 2]: 30%
reduction in mean fluorescence intensity of GFP in surviving CTLs ([1]; iCasp9M-transduced CTLs after CID): 70%
elimination of GFP+ cells ([1]; iCasp9M-transduced CTLs, 10 nM, day 7): 99.2%+/−0.14
elimination of GFP+ cells ([1]; iFas-transduced CTLs, 10 nM, day 7): 89.3%+/−4.9
